The record followed here is patent US20250388605A1, “HETEROBIFUNCTIONAL COMPOUNDS AND METHODS OF TREATING DISEASE” (Halda Therapeutics OpCo, Inc., priority 2022, published 2025).

Bounds are passed on as bounds.

In the first assay the target is T1, progesterone receptor ligand binding domain (GST-tagged PR LBD) (Homo sapiens, UniProt P06401).
T1 construct: purchased Life Technologies A15905 or a15906
T1 sequence (P06401 679-913 limits assumed): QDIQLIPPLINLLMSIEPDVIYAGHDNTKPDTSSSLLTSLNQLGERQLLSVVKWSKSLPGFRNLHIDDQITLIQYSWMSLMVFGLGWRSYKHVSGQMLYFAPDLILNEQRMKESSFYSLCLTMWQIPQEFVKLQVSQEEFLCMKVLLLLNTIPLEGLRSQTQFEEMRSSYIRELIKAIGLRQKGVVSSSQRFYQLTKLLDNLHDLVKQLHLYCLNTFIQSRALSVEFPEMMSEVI
As to the kind of experiment: FP Assay for Binding Affinity to Progesterone Receptor (PolarScreen Progesterone Receptor Competitor Assay Kit). The settings on record: fluorescence polarization, Fluormone tracer, 2 hours at room temperature. The method in brief:
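Fluorescence polarization competition: GST-tagged human PR LBD, Fluormone tracer and compound incubated 2 h at room temperature in the dark. mP plotted against compound concentration; IC50 from four-parameter non-linear fit.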
Background: Polarisation of emitted light reports the rotation of a fluorescent probe.
Take `Cn1cc(-c2cc(C(C)(C)O)ccc2Oc2ccc(N3CC(CC4CN(c5ncc(C(=O)N[C@H]6C(C)(C)[C@H](Oc7ccc(C#N)c(Cl)c7)C6(C)C)cn5)C4)C3)cc2)c2cc[nH]c2c1=O` [Compound I-280]: the IC50 (as a rule, the concentration at which inhibition is half-maximal) lay in the range of 50 to 500 nM.

In a further assay the target is T2, androgen receptor (Homo sapiens, UniProt P10275).
T2 construct: host or cells: unnamed cells, cytosolic fraction
T2 sequence (P10275 1-920): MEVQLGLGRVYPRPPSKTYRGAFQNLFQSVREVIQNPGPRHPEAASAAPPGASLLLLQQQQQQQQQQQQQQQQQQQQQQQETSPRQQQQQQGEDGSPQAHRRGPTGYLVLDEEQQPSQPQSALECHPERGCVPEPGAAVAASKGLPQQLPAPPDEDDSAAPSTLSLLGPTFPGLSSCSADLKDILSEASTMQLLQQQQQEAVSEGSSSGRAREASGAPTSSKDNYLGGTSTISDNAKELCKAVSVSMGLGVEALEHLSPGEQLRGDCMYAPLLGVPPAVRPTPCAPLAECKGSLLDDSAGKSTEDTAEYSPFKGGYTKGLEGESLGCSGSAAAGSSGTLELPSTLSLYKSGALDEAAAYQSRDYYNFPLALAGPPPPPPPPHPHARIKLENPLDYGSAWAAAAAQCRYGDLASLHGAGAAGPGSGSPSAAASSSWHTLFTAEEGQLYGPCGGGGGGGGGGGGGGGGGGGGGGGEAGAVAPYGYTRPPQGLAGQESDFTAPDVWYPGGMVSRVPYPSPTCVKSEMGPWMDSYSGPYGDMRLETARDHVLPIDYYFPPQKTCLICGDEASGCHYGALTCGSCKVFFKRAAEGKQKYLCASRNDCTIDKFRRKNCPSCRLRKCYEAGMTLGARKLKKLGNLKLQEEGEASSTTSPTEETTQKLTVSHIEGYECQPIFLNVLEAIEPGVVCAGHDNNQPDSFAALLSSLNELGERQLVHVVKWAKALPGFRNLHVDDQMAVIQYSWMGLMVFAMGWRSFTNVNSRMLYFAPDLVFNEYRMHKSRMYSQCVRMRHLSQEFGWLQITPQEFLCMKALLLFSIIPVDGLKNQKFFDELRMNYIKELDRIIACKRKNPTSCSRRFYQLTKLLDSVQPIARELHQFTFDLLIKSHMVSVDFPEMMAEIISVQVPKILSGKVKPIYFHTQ
As to the kind of experiment: Assay for binding affinity to androgen receptor ([3H]methyltrienolone radioligand competition, cell cytosol). The conditions noted are these: binding to the androgen receptor, 1 nM [3H]methyltrienolone, 24 hr at 4° C. The protocol: Fractions of cell cytosol ([…]) were incubated for 24 hr at 4° C. with 1 nM [^3H]methyltrienolone in the absence or presence of the test compound in a buffer containing 25 mM Hepes-Tris (pH 7.4), 1 mM EDTA, 10 mM Na2MoO4, 2 mM DTT, 5 μM triamcinolone acetonide, and 10% glycerol. Nonspecific binding was determined in the presence of […] testosterone. Following incubation, the samples were filtered rapidly under vacuum through glass fiber filters (GF/B, Packard) presoaked with 0.3% PEI and rinsed several times with ice-cold 50 mM Tris-HCl using a 96-sample cell harvester (Unifilter, Packard). The filters were dried then counted for radioactivity in a scintillation counter (Topcount, Packard) using a scintillation cocktail (Microscint 0, Packard). The results are expressed as a percent inhibition of the control radioligand specific binding. The standard reference compound is testosterone, which is tested in each experiment at several concentrations to obtain a competition curve from which its IC50 is calculated.
In the case of `CCS(=O)(=O)Nc1ccc(Oc2cccc(OCCN(C)c3ncc(C(=O)N[C@H]4C(C)(C)[C@H](Oc5ccc(C#N)c(Cl)c5)C4(C)C)cn3)c2)c(-c2cn(C)c(=O)c3[nH]ccc23)c1` [Compound I-1, N-((1r, 3r)-3-(3-chloro-4-cyanophenoxy)-2,2,4,4-tetramethylcyclobutyl)-2-((2-(3-(4-(ethylsulfonamido)-2-(6-methyl-7-oxo-6,7-dihydro-1H-pyrrolo[2,3-c]pyridin-4-yl)phenoxy)phenoxy)ethyl)(methyl)amino)pyrimidine-5-carboxamide], the inhibitory constant (Ki) (in general, the dissociation constant of the complex between target and ligand, obtained from inhibition or displacement) was under 50 nM.

`CCS(=O)(=O)Nc1ccc(Oc2cccc(OCCOCCOCCOCCOCCN(C)c3ncc(C(=O)N[C@H]4C(C)(C)[C@H](Oc5ccc(C#N)c(Cl)c5)C4(C)C)cn3)c2)c(-c2cn(C)c(=O)c3[nH]ccc23)c1` [Compound I-3] came in with a Ki of under 50 nM. Still for that read-out and setting: next, `CCS(=O)(=O)Nc1ccc(Oc2cccc(OCCOCCOCCOCCOCCOC3CCN(c4ncc(C(=O)N[C@H]5C(C)(C)[C@H](Oc6ccc(C#N)c(Cl)c6)C5(C)C)cn4)CC3)c2)c(-c2cn(C)c(=O)c3[nH]ccc23)c1` [Compound I-8]: under 50 nM; `CCS(=O)(=O)Nc1ccc(Oc2cccc(OCCOC3CCN(c4ccc(C(=O)N[C@H]5C(C)(C)[C@H](Oc6ccc(C#N)c(Cl)c6)C5(C)C)nn4)CC3)c2)c(-c2cn(C)c(=O)c3[nH]ccc23)c1` [Compound I-11]: under 50 nM. The same measure, in the same setting: next, `CCS(=O)(=O)Nc1ccc(Oc2cccc(OCCOCCOC3CCN(c4ncc(C(=O)N[C@H]5C(C)(C)[C@H](Oc6ccc(C#N)c(Cl)c6)C5(C)C)cn4)CC3)c2)c(-c2cn(C)c(=O)c3[nH]ccc23)c1` [Compound I-13]: under 50 nM. On the same count and under the same terms, next, `CCS(=O)(=O)Nc1ccc(Oc2cccc(COC3CCN(c4ncc(C(=O)N[C@H]5C(C)(C)[C@H](Oc6ccc(C#N)c(Cl)c6)C5(C)C)cn4)CC3)c2)c(-c2cn(C)c(=O)c3[nH]ccc23)c1` [Compound I-18, N-((1r, 3r)-3-(3-chloro-4-cyanophenoxy)-2,2,4,4-tetramethylcyclobutyl)-2-(4-((3-(4-(ethylsulfonamido)-2-(6-methyl-7-oxo-6,7-dihydro-1H-pyrrolo[2,3-c]pyridin-4-yl)phenoxy)benzyl)oxy)piperidin-1-yl)pyrimidine-5-carboxamide]: under 50 nM. `CCS(=O)(=O)Nc1ccc(Oc2cccc(CCOC3CCN(c4ncc(C(=O)N[C@H]5C(C)(C)[C@H](Oc6ccc(C#N)c(Cl)c6)C5(C)C)cn4)CC3)c2)c(-c2cn(C)c(=O)c3[nH]ccc23)c1` [Compound I-19]: the inhibition constant (Ki) is under 50 nM. The compound `CCS(=O)(=O)Nc1ccc(Oc2cccc(N(C)C3CN(CC4CCN(c5ncc(C(=O)NC6C(C)(C)C(Oc7ccc(C#N)c(Cl)c7)C6(C)C)cn5)CC4)C3)c2)c(-c2cn(C)c(=O)c3[nH]ccc23)c1` (centres unmarked) [Compound I-39] had an inhibition constant (Ki) of under 50 nM.

Turning to `CCS(=O)(=O)Nc1ccc(Oc2cccc(OCCOC3CCN(c4ncc(C(=O)N[C@H]5C(C)(C)[C@H](Oc6ccc(C#N)c(Cl)c6)C5(C)C)cn4)CC3)n2)c(-c2cn(C)c(=O)c3[nH]ccc23)c1` [Compound I-47, N-((1r, 3r)-3-(3-chloro-4-cyanophenoxy)-2,2,4,4-tetra-methylcyclobutyl)-2-(4-(2-((6-(4-(ethylsulfonamido)-2-(6-methyl-7-oxo-6,7-dihydro-1H-pyrrolo[2,3-c]pyridin-4-yl)phenoxy)pyridin-2-yl)oxy)ethoxy)piperidin-1-yl)pyrimidine-5-carboxamide], the inhibition constant (Ki) was under 50 nM.

With `Cn1cc(-c2ccccc2Oc2cccc(OCCOC3CCN(c4ncc(C(=O)N[C@H]5C(C)(C)[C@H](Oc6ccc(C#N)c(Cl)c6)C5(C)C)cn4)CC3)c2)c2cc[nH]c2c1=O` [Compound I-61, N-((1r, 3r)-3-(3-chloro-4-cyanophenoxy)-2,2,4,4-tetramethylcyclobutyl)-2-(4-(2-(3-(2-(6-methyl-7-oxo-6,7-dihydro-1H-pyrrolo[2,3-c]pyridin-4-yl)phenoxy)phenoxy)ethoxy)piperidin-1-yl)pyrimidine-5-carboxamide], the inhibitory constant (Ki) is under 50 nM. The compound `CCS(=O)(=O)Nc1ccc(Oc2cccc(NCCOC3CCN(c4ncc(C(=O)N[C@H]5C(C)(C)[C@H](Oc6ccc(C#N)c(Cl)c6)C5(C)C)cn4)CC3)c2)c(-c2cn(C)c(=O)c3[nH]ccc23)c1` [Compound I-84] returned an inhibition constant Ki of under 50 nM.

`Cn1cc(-c2cc(N)ccc2Oc2cccc(N3CC(N4CCN(c5ncc(C(=O)N[C@H]6C(C)(C)[C@H](Oc7ccc(C#N)c(Cl)c7)C6(C)C)cn5)CC4)C3)c2F)c2cc[nH]c2c1=O` [Compound I-93] had an inhibition constant Ki of under 50 nM.

Take `Cn1cc(-c2ccccc2Oc2cccc(OCCN3CCN(c4ncc(C(=O)N[C@H]5C(C)(C)[C@H](Oc6ccc(C#N)c(Cl)c6)C5(C)C)cn4)CC3)c2)c2cc[nH]c2c1=O` [Compound I-98]: the inhibitory constant (Ki) is under 50 nM. Still for that read-out and setting: next, `Cn1cc(-c2cc(N)ccc2Oc2cccc(OCCN3CCN(c4ncc(C(=O)N[C@H]5C(C)(C)[C@H](Oc6ccc(C#N)c(Cl)c6)C5(C)C)cn4)CC3)c2F)c2cc[nH]c2c1=O` [Compound I-100]: under 50 nM.

For the compound `Cn1cc(-c2cc(N)ccc2Oc2cccc(OCCC3CCN(c4ncc(C(=O)N[C@H]5C(C)(C)[C@H](Oc6ccc(C#N)c(Cl)c6)C5(C)C)cn4)CC3)c2)c2cc[nH]c2c1=O` [Compound I-101], the inhibitory constant (Ki) is under 50 nM. On the same count and under the same terms, next, `CCS(=O)(=O)N(C)c1ccc(Oc2cccc(N3CCN(C4CN(c5ncc(C(=O)N[C@H]6C(C)(C)[C@H](Oc7ccc(C#N)c(Cl)c7)C6(C)C)cn5)C4)CC3)c2)c(-c2cn(C)c(=O)c3[nH]ccc23)c1` [Compound I-118]: under 50 nM; `CCS(=O)(=O)Nc1ccc(Oc2cccc(CCN3CC4CN(c5ncc(C(=O)N[C@H]6C(C)(C)[C@H](Oc7ccc(C#N)c(Cl)c7)C6(C)C)cn5)CC4C3)c2)c(-c2cn(C)c(=O)c3[nH]ccc23)c1` (some centres unmarked) [Compound I-119]: under 50 nM. As for `CCS(=O)(=O)Nc1ccc(Oc2cccc(N3CC(N(C)C4CN(c5ncc(C(=O)N[C@H]6C(C)(C)[C@H](Oc7ccc(C#N)c(Cl)c7)C6(C)C)cn5)C4)C3)c2)c(-c2cn(C)c(=O)c3[nH]ccc23)c1` [Compound I-120], the Ki is under 50 nM. Still for that read-out and setting: next, `CCS(=O)(=O)Nc1ccc(Oc2cccc(N3CCN(C4CN(c5ncc(C(=O)N[C@H]6C(C)(C)[C@H](Oc7ccc(C#N)c(Cl)c7)C6(C)C)cn5)C4)CC3)c2)c(-c2cn(C)c(=O)c3[nH]ccc23)c1` [Compound I-126]: under 50 nM; `CCS(=O)(=O)Nc1ccc(Oc2cccc(N3CC(CC4CN(c5ncc(C(=O)N[C@H]6C(C)(C)[C@H](Oc7ccc(C#N)c(Cl)c7)C6(C)C)cn5)C4)C3)c2)c(-c2cn(C)c(=O)c3[nH]ccc23)c1` [Compound I-158]: under 50 nM; `CCS(=O)(=O)c1ccc(Oc2cccc(OCCOC3CCN(c4ccc(C(=O)N[C@H]5C(C)(C)[C@H](Oc6ccc(C#N)c(Cl)c6)C5(C)C)cn4)CC3)c2F)c(-c2cn(C)c(=O)c3[nH]ccc23)c1` [Compound I-185]: under 50 nM.

A further assay deals with T-Rex 293 cell line SC cells having increased expression of progesterone receptor isoform B protein. As to the kind of experiment: Cellular growth inhibition assay, T-Rex 293 SC cells exposed to doxycycline (increased progesterone receptor isoform B expression), CellTiter-Glo. The conditions noted are these: T-Rex 293 SC cells with 10 ng/mL doxycycline (increased PR isoform B), 72 hours. The class given is cell-based. (In ATP-based viability assays light output follows the ATP content of the culture.)
With `CCS(=O)(=O)Nc1ccc(Oc2cccc(OCCN(C)c3ncc(C(=O)N[C@H]4C(C)(C)[C@H](Oc5ccc(C#N)c(Cl)c5)C4(C)C)cn3)c2)c(-c2cn(C)c(=O)c3[nH]ccc23)c1` [Compound I-1, N-((1r, 3r)-3-(3-chloro-4-cyanophenoxy)-2,2,4,4-tetramethylcyclobutyl)-2-((2-(3-(4-(ethylsulfonamido)-2-(6-methyl-7-oxo-6,7-dihydro-1H-pyrrolo[2,3-c]pyridin-4-yl)phenoxy)phenoxy)ethyl)(methyl)amino)pyrimidine-5-carboxamide], the GI50 (commonly the concentration giving 50% growth inhibition) was under 500 nM. The same measure, in the same setting: for `CCS(=O)(=O)Nc1ccc(Oc2cccc(OCCOCCOCCOCCOCCN(C)c3ncc(C(=O)N[C@H]4C(C)(C)[C@H](Oc5ccc(C#N)c(Cl)c5)C4(C)C)cn3)c2)c(-c2cn(C)c(=O)c3[nH]ccc23)c1` [Compound I-3] the value was under 500 nM; for `CCS(=O)(=O)Nc1ccc(Oc2cccc(COC3CCN(c4ncc(C(=O)N[C@H]5C(C)(C)[C@H](Oc6ccc(C#N)c(Cl)c6)C5(C)C)cn4)CC3)c2)c(-c2cn(C)c(=O)c3[nH]ccc23)c1` [Compound I-18, N-((1r, 3r)-3-(3-chloro-4-cyanophenoxy)-2,2,4,4-tetramethylcyclobutyl)-2-(4-((3-(4-(ethylsulfonamido)-2-(6-methyl-7-oxo-6,7-dihydro-1H-pyrrolo[2,3-c]pyridin-4-yl)phenoxy)benzyl)oxy)piperidin-1-yl)pyrimidine-5-carboxamide], under 500 nM; for `Cn1cc(-c2cc(C(C)(C)O)ccc2Oc2ccc(N3CC(CC4CN(c5ncc(C(=O)N[C@H]6C(C)(C)[C@H](Oc7ccc(C#N)c(Cl)c7)C6(C)C)cn5)C4)C3)cc2)c2cc[nH]c2c1=O` [Compound I-280], under 500 nM.
